pIC50: −log10 of the molar value.

One assay concerns the target T1, TRKA G595R (Homo sapiens, UniProt P04629, G595R).
T1 construct: purchased Signal Chem Life Sciences N16-12BG
Description: TRKA G595R activity inhibition test (HTRF kinase assay). It is filed as biochemical. As to conditions: humanized recombined TRKA G595R protein, 2.9 μM ATP. Here is the method: TRKA G595R Activity Inhibition Test:
The effect of the compounds of the invention on the activity of TRKA G595R was evaluated by the in vitro kinase assay.
The experimental method was summarized below:
The in vitro activity of TRKA G595R was measured using a HTRF kinase assay kit (Cisbio, No. 62TKOPEC) by detecting the phosphorylation level of the substrate in the kinase reaction. The reaction buffer contained the following components: the reaction buffer of the enzyme in the kit (1×), 5 mM MgCl2, 1 mM DTT. The humanized recombined TRKA G595R protein (No. N16-12BG, purchased from Signal Chem Life Sciences) was diluted into 0.25 ng/kinase solution with the reaction buffer. The substrate reaction solution comprised 0.51 μM biotin-labeled tyrosine kinase substrate and 2.9 μM ATP, which was diluted with reaction buffer. The detection buffer comprised 0.15 ng/μL cage antibody labelled with Eu3+ and 31.875 nM XL665 labeled with streptavidin, which was diluted with reaction buffer.
The compound was dissolved into 100% DMSO and diluted to 1 mM or 100 μM, then diluted with DMSO in 4 times serial dilution to a minimum concentration of 61 or 6.1 nM, and each concentration point was further diluted 40 times with the reaction buffer.
4 μl of solution of the test compound and 2 μl of solution of TRKA G595R kinase were added to the 384 well plate (Corning No. 4512), mixed well and incubated at room temperature for 15 minutes. Then 4 μl of solution of substrate was added and the reaction mixture was incubated at room temperature for 60 minutes. 10 μl of detection buffer of the same volume as the reaction mixture was then added, the reaction mixture was mixed well and allowed to stand for 30 minutes at room temperature. The reaction process was monitored at the wavelength of 620 nm and 665 nm by Envision board reader (Perkin Elmer). The ratio of 665/620 was positively correlated with the phosphorylation level of the substrate, then TRKA G595R kinase activity was determined. In this experiment, the group without TRKA G595R kinase was used as the negative control (100% inhibition), the group with TRKA G595R but without the test compound was used as the positive control (0% inhibition). The inhibition percentage of the test compound on TRKA G595R activity can be calculated by the following formula: Inhibition percentage=100−100*(signal value of the test compound under specific concentration−signal value of the negative control)/(signal value of the positive control−signal value of the negative control) The IC50 value of the test compound was calculated at 8 concentration points by use of XLfit (ID Business Solutions Ltd. UK) software through the following formula: Y=Bottom+(Top−Bottom)/(1+10^((log IC50−X)*slope factor)) […]
In general terms: TR-FRET usually uses a lanthanide donor and a delayed reading to cut background.

The target of another assay is T2, TRKA G667C (Homo sapiens, UniProt P04629, G667C).
T2 construct: purchased Signal Chem Life Sciences N16-12 CG
T2 sequence (P04629 33-796 G667C): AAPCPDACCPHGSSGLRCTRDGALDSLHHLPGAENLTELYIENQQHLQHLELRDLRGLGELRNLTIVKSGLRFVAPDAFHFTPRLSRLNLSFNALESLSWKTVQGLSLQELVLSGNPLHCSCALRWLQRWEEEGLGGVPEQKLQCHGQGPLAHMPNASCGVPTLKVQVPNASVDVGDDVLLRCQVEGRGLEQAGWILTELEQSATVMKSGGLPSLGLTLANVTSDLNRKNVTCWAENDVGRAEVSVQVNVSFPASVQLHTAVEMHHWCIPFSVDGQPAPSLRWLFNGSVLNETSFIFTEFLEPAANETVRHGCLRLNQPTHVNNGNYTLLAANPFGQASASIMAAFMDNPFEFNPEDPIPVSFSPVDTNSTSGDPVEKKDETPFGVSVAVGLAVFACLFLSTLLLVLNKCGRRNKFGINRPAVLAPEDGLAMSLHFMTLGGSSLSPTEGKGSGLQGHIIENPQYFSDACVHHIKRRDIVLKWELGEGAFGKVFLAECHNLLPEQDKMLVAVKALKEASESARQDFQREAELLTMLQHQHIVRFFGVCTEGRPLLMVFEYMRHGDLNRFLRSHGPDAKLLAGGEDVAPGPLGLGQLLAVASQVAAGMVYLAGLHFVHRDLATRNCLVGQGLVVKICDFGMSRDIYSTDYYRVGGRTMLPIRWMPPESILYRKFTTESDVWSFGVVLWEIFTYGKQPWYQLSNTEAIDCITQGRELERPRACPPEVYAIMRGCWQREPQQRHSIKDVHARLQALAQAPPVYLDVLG
Nature of the assay: TRKA G667C activity inhibition test (HTRF kinase assay). The class given is biochemical. As to conditions: humanized recombined TRKA G667C protein, 2.7 μM ATP. Here is the method:
TRKA G667C Activity Inhibition Test:
The effect of the compounds of the invention on the activity of TRKA G667C was evaluated by the in vitro kinase assay.
The experimental methods were summarized below:
The in vitro activity of TRKA G667C was measured using a HTRF kinase assay kit (Cisbio, No. 62TKOPEC) by detecting the phosphorylation level of the substrate in the kinase reaction.
The reaction buffer contained the following components: reaction buffer of the enzyme in the kit (1×), 5 mM MgCl2, 1 mM DTT. The humanized recombined TRKA G667C protein (No. N16-12 CG, Signal Chem Life Sciences) was diluted into 0.09 ng/μl kinase solution with the reaction buffer. […]
4 μl of solution of the test compound and 2 μl of solution of TRKA G667C kinase were added to the 384 well plate (Corning No. 4512), mixed well and incubated at room temperature for 15 minutes. […] The reaction process was monitored at the wavelength of 620 nm and 665 nm by Envision board reader (Perkin Elmer). The ratio of 665/620 was positively correlated with the phosphorylation level of the substrate, then TRKA G667C kinase activity was determined. […]
The IC50 value of the compound was calculated at 8 concentration points by XLfit (ID Business Solutions Ltd. UK) software through the following formula: Y=Bottom+(Top−Bottom)/(1+10^((log IC50−X)*slope factor)) […]

In another assay the target is TRKA (Homo sapiens, UniProt P04629). Description: TRKA activity inhibition test (HTRF kinase assay). It is filed as biochemical. As to conditions: humanized recombined TRKA protein, 8.4 μM ATP. Here is the method: TRKA Activity Inhibition Test
TRKA, sequence (P04629 33-796): as the sequence (P04629 33-796 G667C) above, with C635G counted along it
The effect of the compounds of the invention on TRKA activity was evaluated by in vitro kinase assays
(§1) The experimental methods were summarized as follows:
The in vitro activity of TRKA was measured by the use of a homogeneous time-resolved fluorescence (HTRF) kinase assay kit (Cisbio, NO. 62TKOPEC) through detecting the phosphorylation level of the substrate in the kinase reaction. The reaction buffer contained the following components: reaction buffer of the enzyme in the kit (1×), 5 mM MgCl2, 1 mM DTT; The humanized recombined TRKA protein was expressed and purified by the purification and identification platform of Tsinghua university, and was diluted into kinase solution (3 ng/μl) with the reaction buffer. The substrate reaction solution comprised 0.23 μM biotin-labeled tyrosine kinase substrate and 8.4 μM ATP, which was diluted with reaction buffer. The detection buffer comprised 0.1 ng/μL cage antibody labelled with Eu3+ and 14.375 nM XL665 labeled with streptavidin, which was diluted with reaction buffer.
The compound was dissolved into 100% DMSO and diluted to 100 or 10 μM, then diluted with DMSO in 4 times serial dilution to a minimum concentration of 6.1 or 0.61 nM, and each concentration point was further diluted 40 times with the reaction buffer.
To the 384 well plate (Corning No. 4512), 4 μl of the solution of the test compound and 2 μl of the solution of TRKA kinase were added respectively, then mixed well and incubated at room temperature for 15 minutes. 4 μl of the solution of substrate was then added and the reaction mixture was incubated at room temperature for 60 minutes. A 10 μl detection buffer of the same volume as the reaction mixture was then added, the mixture was mixed well and allowed to stand for 30 minutes at room temperature. The reaction process was monitored at the wavelengths of 620 nm and 665 nm by Envision board reader (Perkin Elmer). The ratio of 665/620 was positively correlated with the phosphorylation level of the substrate, then TRKA kinase activity was determined. […] The inhibition percentage of the test compound on the TRKA activity can be calculated by the following formula: The IC50 value of the compound was calculated at 8 concentration points by use of XLfit software (ID Business Solutions Ltd. UK) through the following formula: Y=Bottom+(Top−Bottom)/(1+10^((log IC50−X)*slope factor)) Of which Y is the inhibition percentage; X is the logarithm of the concentration of the compound to be tested; Bottom is the […] inhibition percentage; Top is the […] inhibition percentage; slope factor is the slope coefficient of the curve.

The test system of the next assay is KM12 cells. Nature of the assay: KM12 cell proliferation, luminescent cell viability test (CellTiter-Glo). As to conditions: Homo sapiens, 96 hours, CTG. It is filed as cell-based. On the procedure: Determination of Median Effective Inhibition Concentration GI50 in KM12 Cells
The effect of the compounds of the invention on the proliferation of KM12 cells was evaluated by the luminescent cell viability test.
as §1
CellTilter-Glo (CTG) detection kit was used. A unique and stable luciferase was used to detect ATP, an indicator of viable cell metabolism. The luminescence signal generated in the experiment was proportional to the number of viable cells in the culture medium, thus the proliferation of KM12 cells was detected.
KM12 cell (purchased from Shanghai Xinyu biological Co.) was cultured in IMDM complete medium (Thermo Fisher, 12440053) containing 10% FBS (GBICO, 10099-141) and 100 units/ml of penicillin streptomycin mixture (Thermofisher, 15140122). When the cell coverage rate in the culture container reached 80-90%, 0.25% trypsin (containing EDTA) (Thermofisher, 25200056) was used to digest and disperse the cells, then they were planted in a white 384 well plate (164610). To each well containing 1000 cells was added 27 μL IMDM complete medium. Then the 384 well plate was cultured overnight in an incubator containing 5% CO2 at 37° C. The compound was dissolved into 100% DMSO and diluted to 1 mM, then diluted with DMSO in 4 times serial dilution to the lowest concentration of 0.061 μM. Each concentration point was further diluted 50 times with IMDM medium. If the IC50 value of the compound was very low, the initial concentration of the compound can be reduced. 3 μl Diluted compound was added into each well, centrifuged and mixed well gently. The medium without cells was used as negative control (100% inhibition), and the group with 0.2% DMSO was used as positive control (0% inhibition).
The 384 well plate was placed in the incubator at 37° C. and 5% CO2 for further incubation. After 96 hours, the plate was taken out and placed at room temperature for 30 minutes. […] Then the cold light signal was read by Envision (Perkin Elmer). […]
The percentage of inhibition of KM12 cell proliferation by the compounds can be calculated by the following formula: Inhibition percentage=100−100*{[(Signalcompound−Signalnegative control)−T0control]/[(Signalpositive control−Signalnegative control)−T0control]}
The IC50 values of compounds were calculated by XLfit (ID Business Solutions Ltd., UK) software at 8 concentration points through the following formula: Y=Bottom+(Top−Bottom)/(1+10^((Log IC50−X)*slope factor))
Of which, Y is the inhibition percentage, Bottom is the bottom plateau of the curve (the bottom platform value of S curve), Top is the top plateau of the curve (the top platform value of S curve), X is the logarithm of the concentration of the compound to be measured.
For orientation: ATP-based viability assays read luminescence as a measure of living cells.

The conditions of assay [1]: early clinical trials, cited from earlier work.

T1 sequence (P04629 33-796 G595R): as the sequence (P04629 33-796 G667C) above, with G563R, C635G counted along it

As usually defined, the pIC50 is the IC50 on a negative log10 scale, so that one unit is a factor of ten. One may read the GI50 as the concentration that inhibits growth by half. Consider `C[C@H]1CNC(=O)Nc2cnn3ccc(nc23)N2C[C@@H](F)C[C@@H]2c2cc(F)cnc2O1` [Compound 1, (2^2R,2^4S,5S)-2^4,3^5-difluoro-5-methyl-4-oxa-7,9-diaza-1(5,3)-pyrazolo[1,5-a]pyrimidin-3(3,2)-pyridin-2(1,2)-pyrrolidincyclononan-8-one], for which the pIC50 was 9.59 at TRKA G595R, 8.79 at TRKA G667C and 9.62 on TRKA. The compound further had a GI50 in the assay on KM12 cells of 0.43 nM.
As to `C[C@H]1CCNC(=O)Nc2cnn3ccc(nc23)N2CCC[C@@H]2c2cc(F)cnc2O1` [Compound 4, (2^2R,5S)-3^5-fluoro-5-methyl-4-oxa-8,10-diaza-1(5,3)-pyrazolo[1,5-a]pyrimidin-3(3,2)-pyridin-2(1,2)-pyrrolidincyclodecan-9-one], the negative logarithm of the IC50 (pIC50) at TRKA G595R was 8.85; at TRKA, 8.97. Moreover, in the assay on KM12 cells, the GI50 came out at 2.26 nM.
As for `O=C1NCCOc2ncc(F)cc2[C@H]2C[C@H](F)CN2c2ccn3ncc(c3n2)N1` [Compound 2, (2^2R,2^4S)-2^4,3^5-difluoro-4-oxa-7,9-diaza-1(5,3)-pyrazolo[1,5-a]pyrimidin-3(3,2)-pyridin-2(1,2)-pyrrolidincyclononan-8-one], the pIC50 was 7.91 on TRKA G595R, 7.79 on TRKA G667C and 9.01 on TRKA. This compound had a GI50 in the assay on KM12 cells of 3.12 nM.
For `O=C(Nc1cnn2ccc(N3CCC[C@@H]3c3cc(F)ccc3F)nc12)N1CC[C@H](O)C1` [larotrectinib], the “patients in complete remission” value in assay [1] (6 patients, no tumor detectable by existing methods) is on record as 12%. The “patients who achieved objective responses” value in assay [1] (38 patients) is 76%. Also, the “patients in remission for more than a year” value in assay [1] is 30 patients.
With `CN1CCOc2ncc(F)cc2[C@H]2C[C@H](F)CN2c2ccn3ncc(c3n2)NC1=O` [Compound 3, (2^2R,2^4S)-2^4,3^5-difluoro-7-methyl-4-oxa-7,9-diaza-1(5,3)-pyrazolo[1,5-a]pyrimidin-3(3,2)-pyridin-2(1,2)-pyrrolidincyclononan-8-one], the pIC50 on TRKA G595R was 7.99; at TRKA, 8.84. For the same compound, the GI50 in the assay on KM12 cells is 33.7 nM.

Source of the values: patent US11878987B2, “Heterocyclic compound as TRK inhibitor” (Beijing Innocare Pharma Tech Co., Ltd., priority 2018, dated 2024).
